Test results published in patent publication US20240327400A1, “COMPOSITIONS AND METHODS FOR MODULATING HAIR GROWTH” (The Regents of the University Of California, priority 2020, published 2024).

Tested on: Lactate dehydrogenase (LDH) activity
Assay: LDH activity assay on human skin lysate (Ldh platereader protocol)
Assay type: biochemical
Details: human skin lysate pretreated with benzil prior to incubation with MPC inhibitors; FIG. 7
Method: Human skin samples were homogenized with a Benchmark BeadBlaster24R in 500 μl of Pierce RIPA Lysis and Extraction buffer (Thermo Scientific Cat No: 89900), centrifuged at 10,000 g for 15 minutes at 4° C. to remove insoluble material, and the soluble fraction quantified by Pierce BCA assay (Thermo Scientific Cat No: 23225). Lactate dehydrogenase activity was quantified using a Sigma Aldrich Lactate Dehydrogenase Activity Assay Kit (Catalog No: MAK066). Briefly, 10 μg of sample was loaded per well in a 96 well plate along with 20 uM of Pelage compounds and pre-incubated at 37° C. for 30 minutes before addition of Ldh assay master mix. Using a Biotek Synergy HTX multi-mode reader, the plate was incubated at 37° C. and absorbance measurements at 450 nm (A450) were taken every 3 minutes for 30 minutes. The LDH activity of each sample was quantified by calculating the AA450 over time.

N#C/C(=C\c1cn(-c2ccccc2)c2ccccc12)C(=O)O [UK5099]
effect on LDH activity after pretreatment with a carboxylesterase inhibitor (benzil): no effect
